In US20260007688A1, “SYNTHETIC ANALOGS OF CANNABINOL (CBN) FOR THE TREATMENT OF AGERELATED NEUROLOGICAL DISORDERS” (priority 2023, published 2026):

How the values were obtained:
[1] = system: MC65 cells; assay: Intracellular amyloid toxicity assay; type: cell-based; conditions: Homo sapiens, 72 h, APP-C99 induced, day 3, MTT, read-out: Aβ toxicity EC50
Excerpt: Accumulation of intracellular amyloid beta peptide (Aβ) is considered by many as being a primary toxic event in AD. The human nerve cell line MC65 conditionally expresses the C99 fragment of the amyloid precursor protein (APP) leading to the accumulation of intracellular AB. The MC65 cells are routinely grown in the presence of tetracycline and, following its removal, the expression of C99 is induced and the cells die within three days because of the accumulation of intracellular, toxic protein aggregates.
For the intracellular amyloid toxicity assay the procedure described in Huang et al., “Intracellular amyloid toxicity induces oxytosis/ferroptosis regulated cell death” Cell Death Dis. 11 (10) (2020) 828 was used. Briefly, MC65 cells were regularly grown in high glucose DMEM supplemented with 10% FCS and 2 μg/ml tetracycline. For the assay, cells were dissociated and plated at 1×10^5 cells per well in 24 well tissue culture plates. After overnight cultivation in growth medium, the cells were washed three times with phosphate buffered saline containing calcium and magnesium and then switched to Opti-minimal essential media (Opti-MEM, Invitrogen) in the presence (no induction) or absence (APP-C99 induced) of 2 μg/ml tetracycline in the presence or absence different concentrations of the indicated compounds. At day 3, the control cells in the absence of tetracycline were dead, and cell viability was determined by the MTT assay. Optical absorbance was measured at 570 nm on a SpectraMax M5 microplate reader. Samples were analyzed in three wells per independent experiment (n=3). Results are presented as EC50.

[2] = system: HT22 cells; assay: Seahorse XF mitochondrial stress test (OCR); type: cell-based, mouse; conditions: 16 hours, compared with the control cells
[3] = system: Drosophila melanogaster; assay: Drosophila mild traumatic brain injury (mTBI) model; type: in vivo; conditions: 3.0 μM in food, 3 weeks after mTBI (10×); vehicle 70.2%
[4] = system: HT22 cells; assay: Microscopic imaging of cell morphology after RSL3; type: cell-based, mouse; conditions: 5 μM compound + 50 nM RSL3, 16 hours
Excerpt: Micrographs show the representative morphological characteristics of the cell cultures under a given condition of 8 experimental replicates. Scale bar=200 μm.
Microscopy. Brightfield, phase contrast, and fluorescence microscopic images were acquired on an IX51 inverted microscope (Olympus Corporation, Tokyo, Japan) with an INFINITY3 monochrome CCD camera (Teledyne Lumenera, Ontario, Canada). Super-resolution microscopic images were acquired on a Zeiss LSM 880 rear port laser scanning confocal and Airyscan FAST microscope (Carl-Zeiss, Oberkochen, Germany). Image processing and analysis were performed with microscope software packages ZEN Black and ImageJ/Fiji.

[5] = system: HT22 cells; assay: Mitochondrial reactive oxygen species measurement (MitoSOX Red); type: cell-based, mouse; conditions: 5 μM compound + 50 nM RSL3
Procedure: The assay procedure described in Liang et al. was used. Briefly, HT22 cells were seeded onto 96-well black walled plates at a density of 3,000 cells/well in DMEM supplemented with 10% FBS and 1% antibiotics. After the desired treatments, the mitochondrial superoxide ROS were detected with MitoSOX Red reagent (Ex/Em=510/580 nm). Experiments were performed according to the manufacturer's instructions. Fluorescence was measured on a SpectraMax M5 microplate reader. Data were normalized for total protein/well. Each condition was analyzed in eight wells per independent experiment (n=8). Results are presented as the percentage of the controls with vehicle alone. Results were verified by live-cell imaging under a fluorescence microscope. FIG. 14 provides the results.

[6] = system: HT22 cells; assay: Lipid peroxidation measurement (C11-BODIPY); type: cell-based, mouse; conditions: compound + RSL3, 16 hours, p<0.0001
Procedure: The assay procedures were adapted from the procedures disclosed by Soriano-Castell et al., “Profiling the chemical nature of anti-oxytotic/ferroptotic compounds with phenotypic screening” Free Radic. Biol. Med. 177 (2021) 313-325 and Liang et al. “Cannabinol inhibits oxytosis/ferroptosis by directly targeting mitochondria independently of cannabinoid receptors” Free Radic. Biol. Med. 180 (2022) 33-51. Briefly, HT22 cells were seeded onto 96-well black walled plates at a density of 3,000 cells/well in DMEM supplemented with 10% FBS and 1% antibiotics. After the desired treatments for 16 hours, cells were labeled with 2.5 μM C11-BODIPY 581/591 (oxidized form Ex/Em=488/520 nm) at 37° C. for 2 hours. Experiments were performed according to the manufacturer's instructions. Fluorescence was measured on a SpectraMax M5 microplate reader. Data were normalized for total protein/well. Each condition was analyzed in eight wells per independent experiment (n=8). Results were verified by live-cell imaging under a fluorescence microscope.

[7] = system: HT22 cells; assay: Seahorse XF real-time ATP rate assay; type: cell-based, mouse; conditions: 5 μM, 16 hours
Procedure: The assay procedure described in Liang et al., “Cannabinol inhibits oxytosis/ferroptosis by directly targeting mitochondria independently of cannabinoid receptors” Free Radic. Biol. Med. 180 (2022) 33-51 was used. Briefly, ATP production rates were assayed with a XF Real-Time ATP Rate Assay Kit using a Seahorse Xfe96 Extracellular Flux Analyzer (Seahorse Bioscience, North Billerica, MA). Complete Seahorse XF DMEM assay medium was supplemented with 10 mM glucose, 1 mM pyruvate and 2 mM L-glutamine, at pH 7.4. Mitochondrial ETC inhibitors were used at the following concentrations: 1.5 μM oligomycin and 0.5 μM of a 1:1 mixture of rotenone and antimycin A. Analyses were conducted using Wave software and XF Report Generators (Agilent Technologies). The sensor cartridge for the Xfe analyzer was hydrated overnight at 37° C. before the experiment. Data were normalized for total protein/well. Each condition was analyzed in 20-40 wells per independent experiment (n=20-40). FIGS. 12 and 13 provide the results.
For HT22 cells, 2,000 cells/well were seeded onto the Seahorse Xfe96 plates under normal culture condition as described above. The next day, cells were treated with test compounds at the desired concentrations and incubated for 16 hours. Immediately before the assay, the culture medium in the plates was replaced with complete Seahorse XF DMEM assay medium. […]

[8] = system: HT22 cells; assay: Ferroptosis assay, RSL3-induced cell death, MTT viability; type: cell-based; conditions: Mus musculus, HT-22, 50 nM RSL3, 16 hours
Procedure: (§1) HT22 mouse hippocampal nerve cells were cultured in high-glucose Dulbecco's modified Eagle's medium (DMEM) (Invitrogen, Cat #11995065, Carlsbad, CA) supplemented with 10% fetal bovine serum (FBS) (Invitrogen, Carlsbad, CA) and 1% antibiotics including penicillin and streptomycin (Invitrogen Cat #10378016, Carlsbad, CA). Cell cultures were incubated at 37° C. in a fully humidified atmosphere containing 10% CO2.
(§2) The assay procedure described in Fischer et al. was used. Briefly, HT22 cells were seeded at 3,000 cells/well in 96-well tissue culture plates in DMEM plus 10% FBS and 1% antibiotics. After 24 hours of plating, the cells were pretreated with different concentrations of test compounds or a vehicle control for 1 hour followed by coincubation with 50-100 nM RSL3 or 500 nM erastin to induce the cell death cascade. After 16 hours of treatment, cell viability was measured by the MTT assay. Optical absorbance was measured at 570 nm on a SpectraMax M5 microplate reader. Samples were analyzed in eight to sixteen wells per independent experiment (n=8-16). Results are presented as the percentage of the controls with vehicle alone.

[9] = system: HT22 cells; assay: Ferroptosis assay, erastin-induced cell death, MTT viability; type: cell-based; conditions: Mus musculus, HT-22, 500 nM erastin, 16 hours
Procedure: as §1, §2

[10] = system: HT22 cells; assay: Oxytosis assay, glutamate-induced cell death, MTT viability; type: cell-based; conditions: Mus musculus, HT-22, 5 mM glutamate, 16 hours
Procedure: as §1
The assay procedure described in Fischer et al., “Old age-associated phenotypic screening for Alzheimer's disease drug candidates identifies sterubin as a potent neuroprotective compound from Yerba santa” Redox Biol. 21 (2019) 101089 was used. Briefly, HT22 cells were seeded at 3,000 cells/well in 96-well tissue culture plates in DMEM plus 10% FBS and 1% antibiotics. After 24 hours of plating, the cells were pretreated with different concentrations of the test compounds or a vehicle control for 1 hour followed by coincubation with 5 mM glutamate to initiate the cell death cascade. After 16 hours of treatment, cell viability was measured by the 3-(4,5-dimethylthiazol-2-yl)-2,5-diphenyltetrazolium bromide (MTT) assay. Optical absorbance was measured at 570 nm on a SpectraMax M5 microplate reader. Samples were analyzed in eight to sixteen wells per independent experiment (n=8-16). Results are presented as the percentage of the controls with vehicle alone.

CCCCCc1cc(O)c2c(c1)OC(C)(C)c1ccc(C)cc1-2 [CBN, Cannabinol]
EC50 [1]: 14 nM | maximal and spare mitochondrial respiration (OCR) [2]: partial but significant decrease | 3-week mortality index (MI), percentage of dead flies [3]: 60.5% | prevention of RSL3-induced morphological deteriorations [4]: effectively prevented | RSL3-induced mtROS production [5]: significantly suppressed | RSL3-induced increase in intracellular LPO [6]: significantly suppressed | total ATP production rate ([7]; compared to the control): slightly but significantly decreased | increase in the OXPHOS contribution to ATP production ([7]; relative to the control): approximately 15% | EC50 [8]: 690 nM | EC50 [9]: 2330 nM | EC50 [10]: 1890 nM
